Experimental data taken from patent US8722868B2, “Glycosyltransferase, novel glycosyltransferase gene, and novel sugar donor compound” (National University Corporation Tokyo University of …, priority 2009, dated 2014).

Experiments:
[1] = biological target: T1, crude enzyme obtained from pink petals of a carnation (variety: "Beam Cherry") (glycosyltransferase) (Dianthus caryophyllus, UniProt E3W9M2); test: Relative activity of crude carnation petal enzyme on each sugar donor (glycosyl transfer to cyanidin 3-glucoside, HPLC); format: biochemical; conditions: crude enzyme 61 μg, cyanidin β-glucoside 200 μM, sugar donor 500 μM, citric acid buffer pH 5.6, 30° C., 15 minutes, HPLC area of cyanidin 3,5-O-β diglucoside
T1 construct: Thus, a crude enzyme liquid was obtained; from tissue; host or cells: pink petals of carnation, variety Beam Cherry (ammonium sulfate precipitate, desalted)
T1 sequence (E3W9M2 31-502): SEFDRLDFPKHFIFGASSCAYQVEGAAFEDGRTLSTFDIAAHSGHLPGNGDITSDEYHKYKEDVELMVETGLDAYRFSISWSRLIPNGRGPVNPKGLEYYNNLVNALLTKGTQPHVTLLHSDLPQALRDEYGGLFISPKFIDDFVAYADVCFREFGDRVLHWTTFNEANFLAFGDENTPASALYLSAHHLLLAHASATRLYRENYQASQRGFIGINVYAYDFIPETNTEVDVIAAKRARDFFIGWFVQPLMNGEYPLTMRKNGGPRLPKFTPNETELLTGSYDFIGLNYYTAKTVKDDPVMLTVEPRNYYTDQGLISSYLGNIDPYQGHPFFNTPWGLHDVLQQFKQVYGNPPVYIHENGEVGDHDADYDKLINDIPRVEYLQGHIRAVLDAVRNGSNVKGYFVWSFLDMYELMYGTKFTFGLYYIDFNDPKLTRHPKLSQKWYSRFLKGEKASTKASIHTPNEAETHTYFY
Method: An enzyme reaction was carried out at 30° C. for 15 minutes in a reaction solution obtained by adding a citric acid buffer (pH 5.6) to a crude enzyme obtained from pink petals of a carnation (variety: “Beam Cherry”) (61 μg), cyanidin β-glucoside (200 μM), and a sugar donor (1-O-β-vanillyl glucose extracted from a carnation or any of synthesized 1-O-vanillyl glucose (in the α or β form), 1-O-isovanillyl glucose (in the α or β form), and 1-O-galloyl glucose (in the α or β form)) (500 μM) to a final volume of 30 μl. The reaction was terminated by adding a 20% phosphoric acid aqueous solution to the reaction liquid so as to result in a final phosphoric acid concentration of 1%, followed by centrifugation. The obtained supernatant was subjected to separation using an HPLC (Chromolith Speed ROD; 4.6×50 mm; Merck) with a linear gradient (5 minutes) of 18% to 28% liquid B containing eluent A (a 1.5% phosphoric acid aqueous solution) and eluent B (a 90% methanol aqueous solution) (flow rate: 3.0 ml/min; 520 nm), followed by analysis. The relative activity of the enzyme on each sugar donor was calculated based on the HPLC chromatogram area of a reaction product (cyanidin 3,5-O-β diglucoside) at a wavelength of 505 nm.

[2] = biological target: T2, carnation-derived glycosyltransferase (SEQ ID NO: 1), recombinant crude enzyme liquid (Dianthus caryophyllus, UniProt E3W9M2); test: Glycosyl transfer reaction with carnation-derived glycosyltransferase gene expressed in Escherichia coli; format: biochemical; conditions: E. coli crude enzyme liquid, cyanidin-3-O-β-glucoside, pH 5.6, 30° C., 3 hours
T2 construct: the enzyme comprising 502 amino acid residues was translated, followed by amino acid removal via processing; added initiator methionine (one Met placed before the processed N-terminus SEFDRL...) (N); made in house; host or cells: Escherichia coli JM109 (crude lysate supernatant)
T2 sequence (E3W9M2 31-502): T1 sequence (E3W9M2 31-502)
Method: The PCR product was ligated to a pTrcHis2-TOPO vector (Invitrogen) using a pTrcHis2-TOPO TA expression Kit (Invitrogen), followed by transformation of the Escherichia coli JM109 strain. DNA was extracted from the transformed Escherichia coli and the DNA nucleotide sequence was analyzed in the above manner. Accordingly, the direction of cDNA introduction and the nonoccurrence of a PCR-induced nucleotide substitution were confirmed.
The transformed Escherichia coli was seeded on an LB medium containing […] ampicillin (5 ml), followed by shake culture at 30° C. for 4 hours. Then, IPTG was added thereto to result in 1 mM, followed by shake culture at 16° C. for 2 hours. The cultured Escherichia coli was harvested via centrifugation at 1,800×g. The medium was removed therefrom. A 0.1 M citric acid buffer (pH 5.6) (150 μl) was added thereto, followed by sufficient mixing. The resultant was repeatedly subjected to ultrasonication on ice 3 times for 10 seconds (output: 4; duty: 70) using a ultrasonic disintegrator (UD-201, TOMY SEIKO Co., Ltd., Tokyo, Japan), followed by centrifugation at 20,000×g. The supernatant was transferred to a new centrifuge tube and designated as a crude enzyme liquid. […]

SMILES: COc1cc(C(=O)OC2OC(CO)C(O)C(O)C2O)ccc1O (stereo not drawn)
- Relative activity of an enzyme on a sugar donor (when synthetic 1-O-β-vanillyl glucose is set as 100) [1]: 100
- Relative activity of an enzyme on a sugar donor (when synthetic 1-O-β-vanillyl glucose is set as 100) ([1]; listed as 1-O-β-vanillyl glucose (from carnation)): 97.9
- Sugar donor function with recombinant carnation-derived glycosyltransferase (reaction product by HPLC) [2]: Generation of cyanidin 3,5-O-β-diglucoside was confirmed
